Measured values as given in the supplement of paper PMC13380429.

Legend:
Details in all cases: 72 h
[1] = system: Calu-3; experiment: cell viability relative to DMSO; higher = less toxic
[2] = system: U2OS; experiment: as above
[3] = system: HepG2; experiment: as above
[4] = system: Caco-2; experiment: as above
[5] = system: Vero E6; experiment: as above
[6] = system: Calu-3; experiment: drug sensitivity score (DSS) for viability; higher = more toxic; extreme values may be limits of the assay
[7] = system: U2OS; experiment: as above
[8] = system: HepG2; experiment: as above
[9] = system: Caco-2; experiment: as above
[10] = system: Vero E6; experiment: as above
[11] = system: Calu-3; experiment: relative viability EC50 (midpoint between 100% and the lowest measured viability); higher = less toxic
[12] = system: U2OS; experiment: as above
[13] = system: HepG2; experiment: as above
[14] = system: Caco-2; experiment: as above
[15] = system: Vero E6; experiment: as above

SMILES | cell viability ([1]; 1 nM) [%] | cell viability ([1]; 10 nM) [%] | cell viability ([1]; 100 nM) [%] | cell viability ([1]; 1000 nM) [%] | cell viability ([1]; 10000 nM) [%] | cell viability ([2]; 1 nM) [%] | cell viability ([2]; 10 nM) [%] | cell viability ([2]; 100 nM) [%] | cell viability ([2]; 1000 nM) [%] | cell viability ([2]; 10000 nM) [%] | cell viability ([3]; 1 nM) [%] | cell viability ([3]; 10 nM) [%] | cell viability ([3]; 100 nM) [%] | cell viability ([3]; 1000 nM) [%] | cell viability ([3]; 10000 nM) [%] | cell viability ([4]; 1 nM) [%] | cell viability ([4]; 10 nM) [%] | cell viability ([4]; 100 nM) [%] | cell viability ([4]; 1000 nM) [%] | cell viability ([4]; 10000 nM) [%] | cell viability ([5]; 1 nM) [%] | cell viability ([5]; 10 nM) [%] | cell viability ([5]; 100 nM) [%] | cell viability ([5]; 1000 nM) [%] | cell viability ([5]; 10000 nM) [%] | drug sensitivity score [6] | drug sensitivity score [7] | drug sensitivity score [8] | drug sensitivity score [9] | drug sensitivity score [10] | relative viability EC50 [11] [µM] | relative viability EC50 [12] [µM] | relative viability EC50 [13] [µM] | relative viability EC50 [14] [µM] | relative viability EC50 [15] [µM]
COc1ccc2c(C(=S)N(C)CC(=O)O)cccc2c1C(F)(F)F [tolrestat] | 103 | 100 | 94.5 | 107 | 98.6 | 94.7 | 98.4 | 96.5 | 98 | 99.1 | 91.2 | 98.6 | 94.9 | 94.2 | 103 | 92.9 | 95.8 | 90.6 | 98.9 | 89.3 | 94.7 | 95.9 | 93.5 | 91.2 | 96.8 | 0 | 0 | 0 | 0 | 0 | > 10 | > 10 | > 10 | > 10 | > 10
CN1CCc2c(c3ccccc3n2Cc2ccc(C(=O)NO)cc2)C1 [tubastatin-A] | 108 | 93.5 | 99.6 | 89.9 | 81.5 | 102 | 97 | 99.3 | 89.2 | 84 | 107 | 104 | 90.1 | 90.9 | 36.9 | 97.2 | 91.2 | 99 | 93.3 | 88.9 | 98.7 | 102 | 101 | 102 | 78.3 | 1.2 | 1 | 5 | 0 | 0.6 | > 10 | > 10 | 2.02 | > 10 | > 10
CCOC(=O)C1=C[C@]2(CC)CCCN3CCc4c(n1c1ccccc41)[C@@H]32 [vinpocetine] | 106 | 95.9 | 94 | 105 | 98.3 | 97.6 | 101 | 102 | 101 | 101 | 97.7 | 94 | 99.7 | 89.7 | 108 | 92 | 96.7 | 91.7 | 98.4 | 104 | 98.8 | 87.7 | 95.9 | 91.8 | 107 | 0 | 0 | 0 | 0 | 0 | > 10 | > 10 | > 10 | > 10 | > 10
Cc1c(C)c2c(c(C)c1O)CC[C@@](C)(CCC[C@H](C)CCC[C@H](C)CCCC(C)C)O2 [vitamin-E] | 98.9 | 82.6 | 102 | 99.3 | 91.7 | 99.9 | 95.1 | 103 | 94.9 | 97.2 | 93.6 | 100 | 91 | 106 | 108 | 101 | 89.8 | 97.1 | 94.8 | 98.5 | 86.5 | 99.4 | 88.5 | 101 | 103 | 0 | 0 | 0 | 0 | 0 | > 10 | > 10 | > 10 | > 10 | > 10
Cc1cc(C(C)(C)C)cc(C)c1CC1=NCCN1 [xylometazoline] | 98.6 | 92.4 | 108 | 92 | 108 | 98.5 | 93.2 | 102 | 97.3 | 103 | 107 | 93.4 | 89.6 | 116 | 101 | 100 | 74.7 | 99.8 | 97.6 | 105 | 112 | 98.2 | 97.3 | 112 | 89.8 | 0 | 0 | 0 | 0 | 0 | > 10 | > 10 | > 10 | > 10 | > 10
CN(C)C/C=C(/c1ccc(Br)cc1)c1cccnc1 [zimelidine] | 99.7 | 107 | 96.6 | 99.2 | 93 | 89.6 | 97.5 | 91.3 | 100 | 90.3 | 103 | 97.8 | 102 | 94.2 | 102 | 100 | 98.9 | 90.6 | 93.6 | 101 | 101 | 100 | 102 | 96.5 | 100 | 0 | 0 | 0 | 0 | 0 | > 10 | > 10 | > 10 | > 10 | > 10
